Consider one compound from patent US20090124657A1, “PHARMACEUTICAL COMPOSITIONS COMPRISING MONTELUKAST” (priority 2007, published 2009).

The data set in a line: Susceptibility of montelukast sodium to degradation. It is filed as physicochemical.

Take `CC(C)(O)c1ccccc1CC[C@@H](SCC1(CC(=O)O)CC1)c1cccc(/C=C/c2ccc3ccc(Cl)cc3n2)c1` [Montelukast sodium, [R-(E)]-1-[[[1-[3-[2-(7-chloro-2-quinolinyl)ethenyl]phenyl]-3-[2-(1-hydroxy-1-methylethyl)phenyl]propyl]thio]methyl]cyclopropaneacetic acid]: the “Susceptibility to oxidative degradation (including atmospheric oxygen)” value (significant increase in mok-3 sulfoxide impurity) was “highly susceptible”. Moreover, the “Susceptibility to acid hydrolysis” value (significant increase in styrene impurity) is given as “highly susceptible”.
